Structures are written as SMILES.

Results on two molecules are retold here after patent US8314250B2, “Sultam derivatives” (Hoffmann-La Roche Inc., priority 2009, dated 2012).

What all share (assay type): cell-based
The test system of test [1] is HeLa cells. Nature of the test: CellTiter-Glo luminescent cell viability (cytotoxicity) assay. To be noted: 10 μM test compound, inhibition of luminescence compared to control cells. As to the method: Cytotoxicity was assessed using Promega's CellTiter-Glo® luminescent cell viability assay (Promega Corporation, Madison, Wis., USA) as described in Promega Technical Bulletin TB288, revised August 2008. The assay was performed in HeLa cells at a maximum concentration tested of 10 μM of test compound. This assay measures the amount of adenosine triphosphate (ATP) present as a way of quantifying the presence and degree of metabolic activity in cell cultures.
Viable Hela cells were plated at a density of 3000 cells/well in 96 wells in black, clear bottom plates. Cells were allowed to attach to the plate by incubating overnight at 37° C. Test compounds were diluted in DMSO then further diluted in 10% FBS media. Media was removed from the cell plates and 50 μL of the solution was added to each well manually with the exception of the control well, which contained the same volume of 10% FBS media which includes 1% DMSO. Cells were incubated in the presence of compound undisturbed for 48 hours at 37° C. After the 48 hour compound exposure, 50 μL of the pCellTiter Glo® reagent was added. The cell plates were agitated on a shaker for 2 minutes to help lyse the cells. The plate was covered and read for luminescence.
Percent inhibition was calculated as follows: PCT_INHIB=100*[(U−T)/U] Where U represents the Luminescence of wells containing untreated cells and
T represents the Luminescence of wells containing compound-treated cells
In general terms: Cellular ATP, detected with luciferase, serves as a proxy for viable cell number.

Test [2] has as its system H196, a small cell lung cancer cell line. Nature of the test: MTT tetrazolium dye proliferation assay. The conditions noted are these: H196 cells, 5 days; for IC50: 50% inhibition of cell proliferation; for IC90: 90% inhibition of cell proliferation. As to the method: Proliferation was evaluated in an adherent cell line by the tetrazolium dye assay according to the procedure of Denizot and Lang (F. Denizot and R. Lang J. Immunol. Methods 1986, 89, 271-277). The cell line used was H196, a small cell lung cancer cell line obtained from the ATCC (ATCC Number CRL-5823™). The cells were grown in RPMI 1640 medium supplemented with 2.5% fetal bovine serum.
Cells were seeded into clear 96 well tissue culture treated plates at 20,000 cells per well. Plates were incubated overnight at 37° C. in a humidified incubator with 5% CO2. The next day, test compounds were serially diluted to three times the final concentration in the appropriate growth medium. 50 μL of a 3× dilution of drug was added per well for a final volume of 150 uL/well. Six concentrations were tested for each compound ranging from 10 μM to 30 nM. […] 50 μL of 0.75% DMSO in growth media was added per well for a final volume of 150 uL/well. The plates were returned to the incubator and, after 5 days, the plates were analyzed as follows: 3-(4,5-dimethylthiazol-2-yl)-2,5-diphenyl-2H-tetrazolium bromide (thiazolyl blue; MTT; Sigma) was added to each well to yield a final concentration of 1.25 mg/mL. Plates were returned to the incubator for 3 hours. The MTT-containing medium was removed and the resulting formazan metabolite was solubilized in 100% ethanol while shaking for 10 minutes at room temperature. Absorbances were read in a plate reader at a wavelength of 570 nm with a 660 nm reference. The concentrations of compounds leading to 50% and 90% inhibition of cell proliferation were determined by using the curve-fitting functionality of Microsoft Excel from plots of the logarithm of the concentration versus percent inhibition. These concentrations represent the IC50 and IC90 values, respectively.

The test system of test [3] is H146 cell line. Nature of the test: MTS tetrazolium assay (proliferation, non-adherent cell line). To be noted: H146 cells, 5 days; for IC50: 50% inhibition of cell proliferation; for IC90: 90% inhibition of cell proliferation. The procedure:
Proliferation was evaluated in a non-adherent cell line using the MTS tetrazolium dye assay according to the procedure of Malich and colleagues (G. Malich et al. Toxicology 1997, 124, 179-192). The cell line used was H146 (ATCC Number HTB-173™). The cells were grown in RPMI 1640 medium supplemented with 2.5% fetal bovine serum.
Cells were seeded into clear 96 well tissue culture treated plates at 20,000 cells per well. Plates were incubated overnight at 37° C. in a humidified incubator with 5% CO2. The next day, test compounds were serially diluted to three times the final concentration in the appropriate growth medium. 50 μL of a 3× dilution of drug was added per well for a final volume of 150 uL/well. […] 50 μL of 0.75% DMSO in growth media was added per well for a final volume of 150 uL/well. The plates were returned to the incubator. After 5 days CellTiter 96® AQueous One Solution (Promega Corporation, Madison, Wis., USA) (25 μL/well) was added to each well and the plates were placed back in the incubator for 2-3 h. The absorbance at 490 nm was measured for each well using a plate reader. The concentrations of compounds leading to 50% and 90% inhibition of cell proliferation were determined by using the curve-fitting functionality of Microsoft Excel from plots of the logarithm of the concentration versus percent inhibition. These concentrations represent the IC50 and IC90 values, respectively.
For orientation: Formazan colour is commonly taken as a measure of viable cells.

Broadly, the IC50 is the midpoint of a concentration-inhibition curve. Lower therefore signals greater potency. A word on the IC90: it is the concentration at which the effect reaches the 90% level. Low readings indicate an effect from little substance, high ones a need for much substance. On to `COc1ccc(Cl)c(CN(Cc2cccc(CN3C(C(=O)N[C@H]4C[C@H]5C[C@@H]([C@@H]4C)C5(C)C)CCS3(=O)=O)c2)[C@H](CN(C)C)CC(C)(C)C)c1F` (single isomer, unassigned; epimer 1) [Example 25], for which the inhibition at 10 µM in test [1] (Homo sapiens, HeLa, 48 h, read-out: Activity (PCT_INHIB @ 10 μM)) stood at 96%. In test [2], this molecule gave a concentration for half-maximal inhibition (IC50) of 1400 nM and an IC90 of 1900 nM. Also, in test [3], the half-inhibitory concentration (IC50) stood at 1600 nM and the IC90 was determined as 3100 nM.
Regarding `COc1ccc(Cl)c(CN(Cc2cccc(CN3C(C(=O)N[C@H]4C[C@H]5C[C@@H]([C@@H]4C)C5(C)C)CCS3(=O)=O)c2)[C@H](CN(C)C)CC(C)(C)C)c1F` (single isomer, unassigned; epimer 2) [Example 26], the “Activity (PCT_INHIB @ 10 μM)” value in test [1] (48 hours, 10 µM) is given as 97%. In test [2] (NCI-H196, 120 h), this molecule displayed an IC50 of 1300 nM and an IC90 of 1800 nM. In test [3], half-maximal inhibition (IC50) was put at 700 nM and the IC90 was found to be 1200 nM.
